Laboratory results as given in US10214584B2, “Therapeutic pharmaceutical composition employing anti-SLC6A6 antibody” (ORDER-MADE MEDICAL RESEARCH INC., priority 2014, dated 2019).

How the values were obtained:
Format in all cases: cell-based, human
[1] = test system: Colo320-SLC6A6-OEx; assay: Ratio of SP cells upon addition of taurine, Colo320-SLC6A6-OEx
Description: (§1) After being transformed in the same manner as shown in Example 8(1) above, the cells were detached on the second day with DISSOCIATION BUFFER (Invitrogen). The cells were stained at 37° C. for 1 hour with a solution prepared to contain 10 μg/mL Hoechst 33342 in PBS(−), followed by analysis using FACS Canto II and a Violet laser (excitation wavelength: 407 nm). Moreover, to identify an SP fraction, an additional experiment was conducted in which verapamil serving an inhibitor of drug efflux transporters was added at a concentration of 30 μg/mL.
(§2) For this analysis, Colo320 cells (which are human colorectal cancer cells) were engineered to overexpress SLC6A6 and cultured for 2 days in a medium supplemented with taurine at a concentration of 0.05 mM, 0.1 mM, 0.5 mM, 1 mM or 5 mM, and then analyzed for SP cells in the same manner as shown in Example 1(3).

[2] = test system: Colo320-Mock; assay: Ratio of SP cells upon addition of taurine, Colo320-Mock; conditions: taurine 0.05-5 mM, FIG. 10
Description: as §1, §2

[3] = test system: SW480 cells (SP and MP fractions); assay: FACS staining of SP and MP fractions of SW480 cells; conditions: SW480, verapamil 30 μg/mL
Description: Moreover, to identify an SP fraction, an additional experiment was conducted in which verapamil serving an inhibitor of drug efflux transporters was added at a concentration of 30 μg/mL.
SLC6A6 expression was analyzed for the SP fraction and non-SP fraction (i.e., major population (MP) fraction) of SW480 cells, which are human colorectal cancer cells.

Compound	increase of ratio of SP cells compared to the absence of taurine ([1]; 5 mM taurine)	ratio of SP cells ([1]; 5 mM taurine, cultured 2 days (17.0% in the absence of taurine)) [%]	number of SP cells ([1]; taurine 0.05-5 mM, FIG. 10)	number of SP cells [2]	SP cells in the presence of verapamil [3]
NCCS(=O)(=O)O [taurine]	about 2.5 fold	26.7	increased in a manner dependent on the added concentration of taurine	increased in a manner dependent on the added concentration of taurine	–
COc1ccc(CCN(C)CCCC(C#N)(c2ccc(OC)c(OC)c2)C(C)C)cc1OC (centres unmarked) [verapamil]	–	–	–	–	no SP cells were observed
